Test results taken from patent publication EP0768085A1, “ANTIBACTERIAL AGENT” (DAIICHI PHARMACEUTICAL CO., LTD., priority 1994, dated 1996).
≈ marks a conversion by molar mass, not a printed value.

Assays:
Type in all cases: cell-based
Pasteurella from fish = assay: Antibacterial activity (IC), agar as in Example 8, media with 1.5% NaCl, 25°C (Example 20, Tables 53-55); conditions: for MIC: Pasteurella piscicida KP94-02
Protocol: (§1) The antibacterial action was evaluated by the inhibitory concentration (hereinafter abbreviated as IC) at which propagation of the bacteria cultured at 37°C for 18 hours was inhibited. Inhibition was determined by the turbidity of the medium. The expressions "IC≤100", "≤10", and "≤1" indicate that MIC-equivalent values obtained at the succesive […] dilution of the sample are 100-10 µg/ml, 10-1 µg/ml, and not more than 1 µg/ml, respectively. […] (In the subsequent Examples, the same rule applies correspondingly.) Table 39
(§2) A suitable amount of a sample was dissolved in dimethylsulfoxide (DMSO), after which the resulting solution was diluted with the same amount of sterilized distilled water to prepare a bulk sample of 1,000 µg/ml. Separately, a bacterial liquid for the test (methicillin-resistant Staphylococcus aureus (MRSA) isolated from humans) which had been cultured in Mueller-Hinton broth (product of DIFCO) was prepared and inoculated to a Mueller-Hinton agar (product of DIFCO) containing the sample so that the final inoculation amount of 10^6 CFU/ml was achieved. The final concentrations of the samples were 100, 10, and 1 µg/ml.
(§3) After culturing at 37°C for 18 hours, the antibacterial activity was evaluated in terms of IC in a manner similar to that described in Example 4.
(§4) In a manner similar to that described in Example 8, antibacterial activity of a variety of ketonitrile derivatives shown in Tables 53-55 was measured. The bacteria used for the test were Enterococcus and Pasteurella from fish. The culture conditions were such that the media contained 1.5% NaCl, and the culture temperature was 25°C.

Enterococcus from fish = assay: as above; conditions: for MIC: Enterococcus Seriolicida SE94-002
Protocol: as §1, §2, §3, §4

[1] = system: Pasteurella multocida (Kobe-6); assay: Antibacterial activity (IC), agar as in Example 8 (Example 17, Table 50); conditions: 18 h, origin pig
Protocol: as §1, §2, §3
In a manner similar to that described in Example 8, antibacterial activity of the invention compound was determined. The bacterium used for the test was Pasteurella Kobe-6 (origin: pig, Pasteurella multocida).

[2] = system: Streptococcus aureus (TI-1); assay: Antibacterial activity (IC), agar as in Example 8 (Example 16, Table 49); conditions: 18 h
Protocol: as §1, §2, §3
In a manner similar to that described in Example 8, antibacterial activity of the invention compound was determined. The bacterium used for the test was […] aureus (TI-1).

[3] = system: Staphylococcus aureus (209-P); assay: Antibacterial activity (IC), agar as in Example 8 (Example 15, Table 48); conditions: 18 h
Protocol: as §1, §2, §3
The bacterium used for the test was Staphylococcus aureus (209-P).

[4] = Enterococcus Seriolicida KG86050
[5] = Enterococcus Seriolicida MS89060
[6] = Enterococcus Seriolicida MS89064
[7] = Enterococcus Seriolicida MS89066
[8] = Enterococcus Seriolicida MS89068
[9] = Enterococcus Seriolicida SE94-001
[10] = Enterococcus Seriolicida SE94-003
[11] = Enterococcus Seriolicida SE94-004
[12] = Enterococcus Seriolicida SE94-005

| SMILES | MIC (Pasteurella from fish) [µg/mL] | IC (Pasteurella from fish; Pasteurella piscicida KP94-04) | IC (Pasteurella from fish; Pasteurella piscicida KP94-05) | IC (Pasteurella from fish; Pasteurella piscicida KP94-06) | IC (Enterococcus from fish; Enterococcus Seriolicida HI) | IC (Enterococcus from fish; [4]) | IC (Enterococcus from fish; [5]) | IC (Enterococcus from fish; [6]) | IC (Enterococcus from fish; [7]) | IC (Enterococcus from fish; [8]) | IC (Enterococcus from fish; [9]) | MIC (Enterococcus from fish) [µg/mL] | IC (Enterococcus from fish; [10]) | IC (Enterococcus from fish; [11]) | IC (Enterococcus from fish; [12]) | MIC [1] [µg/mL] | MIC [2] [µg/mL] | MIC [3] [µg/mL] |
| --- | --- | --- | --- | --- | --- | --- | --- | --- | --- | --- | --- | --- | --- | --- | --- | --- | --- | --- |
| CC(Oc1cc(Oc2ccc(C(F)(F)F)cc2Cl)ccc1[N+](=O)[O-])C(=O)C(C#N)c1ccc(Cl)cc1Cl (stereo not drawn) [Compound No. 116, 4-[5-(2-chloro-4-trifluoromethylphenoxy)-2-nitrophenoxy]-2-(2,4-dichlorophenyl)-3-oxopentanonitrile] | 10 to 100 (≈ 17.4 to 174 µM) | ≤100 (MIC-equivalent values obtained at the succesive 2-fold dilution of the sample are 100-10 µg/ml) | ≤100 (MIC-equivalent values obtained at the succesive 2-fold dilution of the sample are 100-10 µg/ml) | ≤100 (MIC-equivalent values obtained at the succesive 2-fold dilution of the sample are 100-10 µg/ml) | ≤10 (10-1 µg/ml) | ≤10 (10-1 µg/ml) | ≤10 (10-1 µg/ml) | ≤10 (10-1 µg/ml) | ≤10 (10-1 µg/ml) | ≤10 (10-1 µg/ml) | ≤10 (10-1 µg/ml) | 1 to 10 (≈ 1.74 to 17.4 µM) | ≤10 (10-1 µg/ml) | ≤10 (10-1 µg/ml) | ≤10 (10-1 µg/ml) | 1 to 10 (≈ 1.74 to 17.4 µM) | 1 to 10 (≈ 1.74 to 17.4 µM) | 1 to 10 (≈ 1.74 to 17.4 µM) |
| CC(Oc1cccc(Oc2ccc(C(F)(F)F)cc2Cl)c1)C(=O)C(C#N)c1ccc(Cl)cc1Cl (stereo not drawn) [Compound No. 108, 4-[3-(2-chloro-4-trifluoromethyl-phenoxy)phenoxy)-2-(2,4-dichlorophenyl)-3-oxopentanonitrile] | 10 to 100 (≈ 18.9 to 189 µM) | ≤100 (MIC-equivalent values obtained at the succesive 2-fold dilution of the sample are 100-10 µg/ml) | ≤100 (MIC-equivalent values obtained at the succesive 2-fold dilution of the sample are 100-10 µg/ml) | ≤100 (MIC-equivalent values obtained at the succesive 2-fold dilution of the sample are 100-10 µg/ml) | ≤10 (10-1 µg/ml) | ≤10 (10-1 µg/ml) | ≤10 (10-1 µg/ml) | ≤10 (10-1 µg/ml) | ≤10 (10-1 µg/ml) | ≤10 (10-1 µg/ml) | ≤10 (10-1 µg/ml) | 1 to 10 (≈ 1.89 to 18.9 µM) | ≤10 (10-1 µg/ml) | ≤10 (10-1 µg/ml) | ≤10 (10-1 µg/ml) | 10 to 100 (≈ 18.9 to 189 µM) | 1 to 10 (≈ 1.89 to 18.9 µM) | 1 to 10 (≈ 1.89 to 18.9 µM) |
| CC(Oc1cc(Oc2ccc(C(F)(F)F)cc2Cl)ccc1[N+](=O)[O-])C(=O)C(C#N)C(=O)N1CCCC1 (stereo not drawn) [compound 134] | 10 to 100 (≈ 19 to 190 µM) | – | – | – | ≤100 (MIC-equivalent values obtained at the succesive 2-fold dilution of the sample are 100-10 µg/ml) | ≤100 (MIC-equivalent values obtained at the succesive 2-fold dilution of the sample are 100-10 µg/ml) | ≤100 (MIC-equivalent values obtained at the succesive 2-fold dilution of the sample are 100-10 µg/ml) | ≤100 (MIC-equivalent values obtained at the succesive 2-fold dilution of the sample are 100-10 µg/ml) | ≤100 (MIC-equivalent values obtained at the succesive 2-fold dilution of the sample are 100-10 µg/ml) | ≤100 (MIC-equivalent values obtained at the succesive 2-fold dilution of the sample are 100-10 µg/ml) | ≤100 (MIC-equivalent values obtained at the succesive 2-fold dilution of the sample are 100-10 µg/ml) | 10 to 100 (≈ 19 to 190 µM) | ≤100 (MIC-equivalent values obtained at the succesive 2-fold dilution of the sample are 100-10 µg/ml) | ≤100 (MIC-equivalent values obtained at the succesive 2-fold dilution of the sample are 100-10 µg/ml) | ≤100 (MIC-equivalent values obtained at the succesive 2-fold dilution of the sample are 100-10 µg/ml) | 10 to 100 (≈ 19 to 190 µM) | 10 to 100 (≈ 19 to 190 µM) | 10 to 100 (≈ 19 to 190 µM) |
